Results as given in patent US10597388B2, “Pyridazinone herbicides” (FMC CORPORATION, priority 2014, dated 2020).

What was measured:
Assay in all cases: Test D controlled growth environment herbicide test, pre- and postemergence
Type in all cases: in vivo
[1] = test system: buckwheat, wild (wild buckwheat, Polygonum convolvulus)
Outline: (§1)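 Pre-emergence: seeds sown in silt loam soil were sprayed with compound in a non-phytotoxic solvent mix containing surfactant. Post-emergence: plants at 2 to 18 cm (1- to 4-leaf stage) in peat moss/vermiculite medium got the same formulation. Visual 0–100 rating versus controls after 14 to 21 d.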

[2] = test system: canarygrass (Phalaris minor)
Outline: as §1

[3] = test system: kochia (Kochia scoparia)
Outline: as §1

[4] = test system: barley, spring (spring barley, Hordeum vulgare)
Outline: as §1

[5] = test system: oilseed rape (Brassica napus)
Outline: as §1

[6] = test system: field violet (Viola arvensis)
Outline: as §1

[7] = test system: galium (catchweed bedstraw, Galium aparine)
Outline: as §1

[8] = test system: Russian thistle (Salsola kali)
Outline: as §1

[9] = test system: oat, wild (wild oat, Avena fatua)
Outline: as §1

[10] = test system: wheat, spring (spring wheat, Triticum aestivum)
Outline: as §1

[11] = test system: pigweed (Amaranthus retroflexus)
Outline: as §1

[12] = test system: wheat, winter (winter wheat, Triticum aestivum)
Outline: as §1

[13] = test system: chickweed (common chickweed, Stellaria media)
Outline: as §1

[14] = Postemergence, 31 g ai/ha, scale 0 to 100 (0 no effect, 100 complete control)
[15] = Postemergence, 125 g ai/ha, visual rating on scale 0 (no effect) to 100 (complete control), 14 to 21 d
[16] = Postemergence, 250 g ai/ha, scale 0 to 100 (0 no effect, 100 complete control)
[17] = Preemergence, 62 g ai/ha, scale 0 to 100 (0 no effect, 100 complete control)
[18] = Preemergence, 125 g ai/ha, scale 0 to 100 (0 no effect, 100 complete control)
[19] = Preemergence, 250 g ai/ha, scale 0 to 100, 0 no effect, 100 complete control
[20] = postemergence, 62 g ai/ha, scale 0 to 100, 0 no effect, 100 complete control

Compound: Cc1nn(C)c(=O)c(-c2c(C)sc3ccc(Br)cc23)c1O [Compound 22]
- Buckwheat, Wild plant response rating [1, 14]: 90
- Plant response rating, Buckwheat, Wild [1, 15]: 100
- Plant response rating, Buckwheat, Wild [1, 16]: 100
- Plant response rating (scale of 0 to 100), Buckwheat, Wild ([1]; Preemergence, 31 g ai/ha): 20
- Plant response rating, Buckwheat, Wild [1, 17]: 20
- Plant response rating, Buckwheat, Wild [1, 18]: 85
- Plant response rating, Buckwheat, Wild [1, 19]: 95
- Plant response rating, Buckwheat, Wild [1, 20]: 98
- Canarygrass plant response rating [2, 14]: 20
- Plant response rating, Canarygrass [2, 15]: 40
- Plant response rating, Canarygrass [2, 16]: 65
- Plant response rating (scale of 0 to 100), Canarygrass ([2]; Preemergence, 31 g ai/ha): 25
- Plant response rating, Canarygrass [2, 17]: 35
- Plant response rating, Canarygrass [2, 18]: 85
- Plant response rating, Canarygrass [2, 19]: 90
- Plant response rating, Canarygrass [2, 20]: 35
- Kochia plant response rating [3, 14]: 80
- Plant response rating, Kochia [3, 15]: 100
- Plant response rating, Kochia [3, 16]: 100
- Plant response rating (scale of 0 to 100), Kochia ([3]; Preemergence, 31 g ai/ha): 35
- Plant response rating, Kochia [3, 17]: 35
- Plant response rating, Kochia [3, 18]: 50
- Plant response rating, Kochia [3, 19]: 75
- Plant response rating, Kochia [3, 20]: 95
- Plant response rating, Barley, Spring [4, 14]: 0
- Plant response rating, Barley, Spring [4, 15]: 15
- Plant response rating, Barley, Spring [4, 16]: 15
- Plant response rating (scale of 0 to 100), Barley, Spring ([4]; Preemergence, 31 g ai/ha): 0
- Plant response rating, Barley, Spring [4, 17]: 0
- Plant response rating, Barley, Spring [4, 18]: 0
- Barley, Spring plant response rating [4, 19]: 0
- Plant response rating, Barley, Spring [4, 20]: 0
- Oilseed Rape plant response rating [5, 14]: 30
- Plant response rating, Oilseed Rape [5, 15]: 95
- Plant response rating, Oilseed Rape [5, 16]: 100
- Plant response rating (scale of 0 to 100), Oilseed Rape ([5]; Preemergence, 31 g ai/ha): 0
- Plant response rating, Oilseed Rape [5, 17]: 0
- Plant response rating, Oilseed Rape [5, 18]: 0
- Plant response rating, Oilseed Rape [5, 19]: 75
- Plant response rating, Oilseed Rape [5, 20]: 30
- Field Violet plant response rating [6, 14]: 70
- Plant response rating, Field Violet [6, 15]: 75
- Plant response rating, Field Violet [6, 16]: 95
- Plant response rating (scale of 0 to 100), Field Violet ([6]; Preemergence, 31 g ai/ha): 20
- Plant response rating, Field Violet [6, 17]: 65
- Plant response rating, Field Violet [6, 18]: 80
- Plant response rating, Field Violet [6, 19]: 100
- Plant response rating, Field Violet [6, 20]: 70
- Galium plant response rating [7, 14]: 90
- Plant response rating, Galium [7, 15]: 98
- Plant response rating, Galium [7, 16]: 98
- Plant response rating (scale of 0 to 100), Galium ([7]; Preemergence, 31 g ai/ha): 10
- Plant response rating, Galium [7, 17]: 65
- Plant response rating, Galium [7, 18]: 75
- Plant response rating, Galium [7, 19]: 85
- Plant response rating, Galium [7, 20]: 90
- Russian Thistle plant response rating [8, 14]: 65
- Plant response rating, Russian Thistle [8, 15]: 75
- Plant response rating, Russian Thistle [8, 16]: 85
- Plant response rating (scale of 0 to 100), Russian Thistle ([8]; Preemergence, 31 g ai/ha): 0
- Plant response rating, Russian Thistle [8, 17]: 0
- Plant response rating, Russian Thistle [8, 18]: 0
- Plant response rating, Russian Thistle [8, 19]: 20
- Plant response rating, Russian Thistle [8, 20]: 70
- Oat, Wild plant response rating [9, 14]: 65
- Plant response rating, Oat, Wild [9, 15]: 85
- Plant response rating, Oat, Wild [9, 16]: 100
- Plant response rating (scale of 0 to 100), Oat, Wild ([9]; Preemergence, 31 g ai/ha): 30
- Plant response rating, Oat, Wild [9, 17]: 55
- Plant response rating, Oat, Wild [9, 18]: 70
- Plant response rating, Oat, Wild [9, 19]: 95
- Plant response rating, Oat, Wild [9, 20]: 85
- Wheat, Spring plant response rating [10, 14]: 5
- Plant response rating, Wheat, Spring [10, 15]: 10
- Plant response rating, Wheat, Spring [10, 16]: 15
- Plant response rating (scale of 0 to 100), Wheat, Spring ([10]; Preemergence, 31 g ai/ha): 0
- Plant response rating, Wheat, Spring [10, 17]: 0
- Plant response rating, Wheat, Spring [10, 18]: 10
- Plant response rating, Wheat, Spring [10, 19]: 25
- Plant response rating, Wheat, Spring [10, 20]: 10
- Pigweed plant response rating [11, 14]: 85
- Plant response rating, Pigweed [11, 15]: 98
- Plant response rating, Pigweed [11, 16]: 100
- Plant response rating (scale of 0 to 100), Pigweed ([11]; Preemergence, 31 g ai/ha): 100
- Plant response rating, Pigweed [11, 17]: 98
- Plant response rating, Pigweed [11, 18]: 98
- Plant response rating, Pigweed [11, 19]: 100
- Plant response rating, Pigweed [11, 20]: 95
- Wheat, Winter plant response rating [12, 14]: 5
- Plant response rating, Wheat, Winter [12, 15]: 15
- Plant response rating, Wheat, Winter [12, 16]: 15
- Plant response rating (scale of 0 to 100), Wheat, Winter ([12]; Preemergence, 31 g ai/ha): 0
- Plant response rating, Wheat, Winter [12, 17]: 0
- Plant response rating, Wheat, Winter [12, 18]: 0
- Plant response rating, Wheat, Winter [12, 19]: 5
- Plant response rating, Wheat, Winter [12, 20]: 5
- Chickweed plant response rating [13, 14]: 85
- Plant response rating, Chickweed [13, 15]: 98
- Plant response rating, Chickweed [13, 16]: 100
- Plant response rating (scale of 0 to 100), Chickweed ([13]; Preemergence, 31 g ai/ha): 95
- Plant response rating, Chickweed [13, 17]: 100
- Plant response rating, Chickweed [13, 18]: 100
- Plant response rating, Chickweed [13, 19]: 100
- Plant response rating, Chickweed [13, 20]: 95
